In US20080103127A1, “METHODS FOR TREATING DISRUPTIVE BEHAVIOR DISORDERS” (priority 2006, published 2008):

Legend:
[1] = tested on: submissive rats; experiment: Reduction of Submissive Behavior Model (RSBM) of depression, dominant-submissive rat food competition test; assay type: in vivo, Sprague-Dawley rats
Source text: In this study, the effects of COMPOUND #7 on dominant or submissive behavior in pairs of rats competing for food are examined. It has been shown that anti-manic drugs, including anticonvulsants, decrease dominance and antidepressant drugs reduce submissiveness. This model uses dominant behavior as a model of mania and submissive behavior as a model of depression. The dominance and submissiveness is defined in a competition test and measured as the relative success of two food-restricted rats to gain access to a feeder. Rats are randomly paired and placed in an apparatus allowing them to compete for a food reward. The dominant-submissive relationship develops over a 2-week period. The submissive or dominant animals in pairs selected after 2 weeks of training were treated orally […] (b.i.d.) with COMPOUND #7 at 3 or 30 mg/kg for 5 weeks. The partner of the drug-treated animal was treated with vehicle.
The objective of this study was to determine if COMPOUND #7 is active in the Reduction of Submissive Behavior Model (RSBM) of depression and the Reduction of Dominant Behavior Model (RDBM) of mania. Measurements were made at two doses (3 and 30 mg/kg) after oral twice a day (b.i.d.) administration. The effect of the drug in the RSBM was compared to the effect of fluoxetine (10 mg/kg) and vehicle (0.5% methylcellulose). The effect of the drug in the RDBM was compared with the effect of lithium (100 mg/kg) and vehicle (0.5% methylcellulose). The endpoints measured were the development of a significant reduction of submissive or dominant behavior and its time of onset.
The DSR developed by two rats competing for food uses the apparatus in FIG. 1. The methodology and equipment are described in several publications. (See, Malatynska E, Goldenberg R, Shuck L, Haque A, Zamecki P, Crites G, Schindler N, Knapp R J. Reduction of submissive behavior in rats: a test for antidepressant drug activity. Pharmacology 2002; 64:8; Malatynska E, Rapp R, Crites G. Dominant behavior measured in a competition test as a model of mania. In: International Behavioral Neuroscience Society Meeting, ed. IBNSCapri, Italy, 2002, p 26.; Bonnet U. Moclobemide: therapeutic use and clinical studies. CNS Drug Rev 2003; 9:97; Danysz W, Plaznik A, Kostowski W, Malatynska E, Jarbe T U, Hiltunen A J, Archer T. Comparison of desipramine, amitriptyline, zimeldine and alaproclate in six animal models used to investigate antidepressant drugs. Pharmacol Toxicol 1988; 62:42; Knapp R J, Goldenberg R, Shuck C, Cecil A, Watkins J, Miller C, Crites G, Malatynska E. Antidepressant activity of memory-enhancing drugs in the reduction of submissive behavior model. Eur J Pharmacol 2002; 440:27; Kostowski W, Malatynska E, Plaznik A, Dyr W, Danysz W. Comparative studies on antidepressant action of alprazolam in different animal models. Pol J Pharmacol Pharm 1986; 38, 471; Malatynska E, De Leon I, Allen D, Yamamura Hi. Effects of amitriptyline on GABA-stimulated ^36Cl^− uptake in relation to a behavioral model of depression. Brain Res Bull 1995; 37:53; Malatynska E, Kostowski W. The effect of antidepressant drugs on dominance behavior in rats competing for food. Pol J Pharmacol Pharm 1984; 36:531; Malatynska E, Kostowski W. Desipramine antagonizes clonidine-induced suppression of dominance in rats: possible involvement of amygdaloid nuclei. Pol J Pharmacol Pharm 1988; 40:357).
In the experiments described in this report Sprague-Dawley rats weighing 160 to 180 g were used. Testing for the development of a DSR between paired rats begins with the random assignment of rats into pairs. Rats from pairs are housed separately between test sessions with other animals in groups of four. The animals are food-deprived overnight with free access to water.
The test involves placing each member of a pair in opposite chambers of the testing apparatus. These chambers are connected through a narrow tunnel with a small container of sweetened milk at the center. […]

[2] = tested on: dominant rats; conditions: administered to dominant rats; cited from earlier work
[3] = tested on: submissive rats; conditions: cited from earlier work; for submissive behavior: treatment of the submissive subject for 3 weeks

| Structure (SMILES) | competitive behavior of dominant rats [2] | submissive behavior [3] | other results |
| --- | --- | --- | --- |
| CC(N)Cc1ccccc1 (stereo not shown) [amphetamine, reference compound] |  |  | effect of treatment of submissive rats (psychostimulant) ([1]; unpublished observation): ineffective |
| NC(=O)N1c2ccccc2C=Cc2ccccc21 [carbamazepine] | significantly reduced competitive behavior |  |  |
| Clc1cccc(Cl)c1N=C1NCCN1 [clonidine] | significantly reduced competitive behavior |  |  |
| CNCCCN1c2ccccc2CCc2ccccc21 [desipramine] |  | reduced submissive behavior | effect on submissive behavior after cessation of treatment ([3]; after cessation of treatment): attenuated |
| CN1C(=O)CN=C(c2ccccc2)c2cc(Cl)ccc21 [diazepam] |  |  | effect of treatment of submissive rats (anxiolytic) ([3]; Pharmacology 2002, 64:8): ineffective |
| CNCCC(Oc1ccc(C(F)(F)F)cc1)c1ccccc1 (stereo not shown) [fluoxetine, reference compound] |  | reduced submissive behavior | onset of significant effect on submissive rats (time of treatment) ([1]; 10 mg/kg i.p. once a day, previous experimental set): 3 weeks |
| CN(C)CCCN1c2ccccc2CCc2ccccc21 [imipramine] |  | reduced submissive behavior |  |
| CCCC(CCC)C(=O)[O-].[Na+] [sodium valproate] | significantly reduced competitive behavior |  |  |
